In patent publication US5422359A, “α-aminoketone derivatives” (Mitsubishi Kasei Corporation, priority 1992, dated 1995):

Target: T1, m-calpain (Rattus norvegicus, UniProt Q07009)
T1 construct: m-calpain was purified from a brain of rat; from tissue; host or cells: rat brain
T1 sequence (Q07009 20-700 limits assumed): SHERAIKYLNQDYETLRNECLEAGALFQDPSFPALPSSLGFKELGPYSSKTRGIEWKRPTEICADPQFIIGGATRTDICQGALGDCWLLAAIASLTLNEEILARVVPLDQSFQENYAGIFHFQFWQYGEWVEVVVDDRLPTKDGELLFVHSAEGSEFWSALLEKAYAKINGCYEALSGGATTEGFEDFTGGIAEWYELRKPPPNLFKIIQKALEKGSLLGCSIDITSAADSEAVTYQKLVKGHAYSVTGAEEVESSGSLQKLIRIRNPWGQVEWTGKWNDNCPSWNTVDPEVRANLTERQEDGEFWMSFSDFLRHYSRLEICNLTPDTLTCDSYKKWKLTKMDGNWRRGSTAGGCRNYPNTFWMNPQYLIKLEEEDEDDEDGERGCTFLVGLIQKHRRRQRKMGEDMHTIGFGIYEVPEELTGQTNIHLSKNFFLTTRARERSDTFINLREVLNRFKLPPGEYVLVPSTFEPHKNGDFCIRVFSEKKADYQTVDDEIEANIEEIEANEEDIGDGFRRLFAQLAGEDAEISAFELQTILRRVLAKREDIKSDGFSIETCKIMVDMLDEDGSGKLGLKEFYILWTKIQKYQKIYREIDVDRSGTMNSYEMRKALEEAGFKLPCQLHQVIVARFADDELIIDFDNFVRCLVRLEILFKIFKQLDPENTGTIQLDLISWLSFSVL
T1 sequence (Q64537 1-270 partner): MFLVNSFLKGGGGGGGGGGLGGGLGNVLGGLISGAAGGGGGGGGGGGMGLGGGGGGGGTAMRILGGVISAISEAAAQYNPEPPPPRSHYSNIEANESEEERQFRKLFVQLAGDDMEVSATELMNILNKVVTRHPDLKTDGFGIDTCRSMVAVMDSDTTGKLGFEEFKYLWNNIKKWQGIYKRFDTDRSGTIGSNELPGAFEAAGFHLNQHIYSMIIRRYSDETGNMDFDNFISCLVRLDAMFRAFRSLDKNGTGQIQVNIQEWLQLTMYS
Assay: Measurement of inhibitory activity against calpain
Type: biochemical
Conditions: m-calpain purified from a brain of rat; read-out: 50% inhibitory concentration (IC50)
Description: Measurement of Inhibitory Activity against Calpain
Through the known method disclosed in Journal of Biological Chemistry, vol. 259, p.3210, (1984), m-calpain was purified from a brain of rat. The inhibitory activity against it was measured and determined according to the method disclosed in Journal of Biological Chemistry, vol. 259, p.12489 […].

CCCC[C@H](NC(=O)[C@H](CC(C)C)NC(=O)OCc1ccccc1)C(=O)CCCc1ccco1 [Example 5]
IC50: 10.1 µM
